# Laboratory results taken from patent publication US6444872B1, “Large animal model of invasive pulmonary aspergillosis in an immunocompromised host” (priority 1999, dated 2002).
# Key:
# [1] = in vivo; cited from earlier work
# Aspergillus fumigatus = assay: Beagle model of invasive pulmonary aspergillosis in an immunocompromised host (TBI + steroids, bronchoscopic spore inoculation); assay type: in vivo
# Text: 1. The “Right” Animal: While choosing an animal the inventors had to consider that a human/clinical mold infection, such as an Aspergillus infection, usually begins as a localized infection and not as a widespread and diffuse pulmonary infection. To be able to reproducibly inoculate a specified dose of an infectious agent in a limited, defined part of the airways the inventors must have easy access to a particular part of the pulmonary tree. This meant that a large animal, such as dog, pig, sheep or monkey, rather than a rodent or lagomorph should be considered. The beagle, which is accepted by both the NCI and the FDA for safety studies of pharmaceutically active agents prior to entering clinical trials, was favored. This dog is easily accessible from several commercial breeders, and in addition to the selected experimental dogs one could conveniently house extra animal's for donation of both platelets and red cells to be transfused as needed during the supportive care phase of the experiments, i.e. after the mold administration.
# 2. Immunosuppression: For immunosuppression the inventors chose total body irradiation (TBI) with an X-ray (Cobalt) (XRT) source, administered with the animal under general anesthesia in a specially constructed box to obtain uniform radiation exposure. […] Further, the XRT dose can be calculated such that it gives a window of fairly deep immunosuppression sustained for 3-5 weeks, which should be sufficient for the intended purpose. The XRT was followed with daily oral prednisolone administration to further suppress T-lymphocyte and macrophage function and enhance spreading the infection.
# 3. Mold Species: More than 90% of human clinical Aspergillus infections are a result of Aspergillus fumigatus infection.
# 4. Mold Dose: To standardize the mold dosage, the inventors prepared batches of Aspergillus spores that were mixed in agarose and stirred down vigorously in mineral oil to obtain a suspension of spores encapsulated in small agarose beads (the approximate average bead diameter was 20 μm). After washing the beads in 0.5% deoxycholate, they were mixed with glycerol prior to cryopreservation and storage at −70° C. The use of agar beads and other encapsulation methods are also contemplated.
# 5. Mold Administration: The human clinical infection usually starts as a localized airway infection either in the sinuses or in a part of one lung, and not as a generalized pulmonary infection. The inventors decided to utilize a pediatric bronchoscope to safely and reproducibly introduce the Aspergillus spores in the intermediary (lower) right lung lobe. After standardization of the dose, 1×10^6 spores encapsulated in agarose beads and resuspended in NS were infused at each occasion.
# 6. Time of Mold Administration: In most human patients, Aspergillus infections occur at a time of leukopenia and profound immunosuppression. The time to develop leukopenia after TBI was very reproducible in the beagles. At day 10-14 days after XRT, when the animal's absolute white blood cell count falls below about 500 per μL (neutrophil count <400 per μL), the mold spore administration was performed. The WBC remain at about <500 per μL till day 25-30 after TBI, at which time the count recovered fairly rapidly in animal's that had not been inoculated with Aspergillus spores, or in beagles who had been inoculated with a dose that was too low to yield progressive infection.
# 7. Supportive Care: The first few animal's died from a superimposed secondary bacterial infection rather than from the mold infection itself In addition, there were bleeding complications when the dogs' platelet count fell below 10,000 per μL. The inventors therefore decided to utilize prophylactic oral (broad-spectrum) antibiotics and “prophylactic” platelet transfusions. […]
# [2] = human, in vivo; cited from earlier work
# [3] = the two dogs that rejected the infection
smiles,measurement,setting,value
CC[C@]1(O)C[C@@H]2CN(CCc3c([nH]c4ccccc34)[C@@](C(=O)OC)(c3cc4c(cc3OC)N(C)[C@H]3[C@@](O)(C(=O)OC)[C@H](OC(C)=O)[C@]5(CC)C=CCN6CC[C@]43[C@@H]65)C2)C1 [Vinblastine],administered dose recovered in the feces after biliary excretion,[1],about 10%
same,dose excreted intact into the urine,[1],Approximately 15%
C[C@@H]1C/C=C/C=C/C=C/C=C/[C@H](O[C@@H]2O[C@H](C)[C@@H](O)[C@H](N)[C@@H]2O)C[C@@H]2O[C@](O)(C[C@@H](O)C[C@H]3O[C@@H]3/C=C/C(=O)O1)C[C@H](O)[C@H]2C(=O)O [Natamycin],outcome of infection,Aspergillus fumigatus; after a 16-day cycle of daily Natamycin treatments,two animal's rejected the infection
same,life span after fungal inoculation,"Aspergillus fumigatus; one animal, expected life span nine days, daily intravenous Natamycin",17 days
same,Pneumonia,"Aspergillus fumigatus; single dog, 1 x 10^6 spores, TBI 3.0 Gy, steroid 30/10 mg, platelet/antibiotic support",Yes
same,Complications (outcome),"Aspergillus fumigatus; single dog, survived pneumonia 4 weeks post therapy",Dog survived
same,necropsy finding,Aspergillus fumigatus; [3],only signs of healing
same,time free from resurgence of the mold infection post completion of drug treatment,Aspergillus fumigatus; [3],one
same,extended life as compared to untreated animals,"Aspergillus fumigatus; therapy instituted a day after Aspergillus inoculum, last 3 beagles, 3.0 Gy TBI",Natamycin extended life by 80% as compared to untreated animals
"C[C@@H]1[C@H](O)[C@@H](C)/C=C/C=C/C=C/C=C/C=C/C=C/C=C/[C@H](O[C@@H]2O[C@H](C)[C@@H](O)[C@H](N)[C@@H]2O)C[C@@H]2O[C@](O)(C[C@@H](O)C[C@@H](O)[C@H](O)CC[C@@H](O)C[C@@H](O)CC(=O)O[C@H]1C)C[C@H](O)[C@H]2C(=O)O [AMB, Amphotericin B]",cases with nephrotoxicity,[2],> 75%
